{
  "source": "patent US6300321A",
  "about": "“Compounds, preparation and use for transferring nucleic acids into cells” (Aventis Pharma S.A., priority 1997, dated 2001)",
  "key": {"[1]": {"test_system": "DNA", "assay": "Physicochemical phase (A, B or C) of the nucleolipid complexes as a function of the charge ratio", "conditions": "micellar form and in combination with a neutral colipid (DOPE and cholesterol)", "method": "FIG. 8: Tables indicating the physicochemical phase (phase A, B or C) in which exist the nucleolipid complexes formed with compound 2 in comparison with its amine-containing analogue, as a function of the charge ratio.\nThe determination of the phases was carried out for compound 2 and for its amine-containing homologue in micellar form and in combination with a neutral colipid (DOPE and cholesterol).\nThe nucleic acid used is the plasmid pXL3031, as described in the preceding example.\nThe complexes are prepared at concentrations of 0.25 mg of DNA/ml with an appropriate quantity of lipid as defined in the present invention in the desired charge ratio. The complex is prepared in a medium containing 5% glucose and a 20 mM solution of sodium chloride. 50 μl of nucleolipid complex are then diluted 20-fold in 950 μl of solution containing 5% glucose and a 20 mM solution of sodium chloride.\nThe size of the complexes was determined by measuring the hydrodynamic diameter by dynamic light scattering with the aid of a Coulter N4+ apparatus.\nThe complexes formed are negatively charged overall, which makes the crossing of cell membranes difficult. It is thus preferable for the values not to be situated in this region in order to transfect the DNA.\nPhase B for which the DNA is completely saturated with the cationic lipid and the complexes are neutral or slightly positive overall. The ionic repulsions being […], this phase is unstable. A phenomenon of \"cross-linking\" may occur, leading to precipitation of the complexes. The complexes in this state cannot therefore be used as injection.\nPhase C for which the DNA is oversaturated with the lipid and the complexes are therefore positive overall. […] The complexes in phase C are therefore particularly suitable for use for the transfer of nucleic acids into cells.\nThe tables in FIGS. 8, 9, 10 and 11 compare the phases as a function of the charge ratios between the compounds of the invention and their amine-containing analogues, that is to say the cationic lipids whose amidine or guanidine function is replaced by an amino function. It is observed that phase B is shifted towards much lower charge ratios. Thus, the incorporation of amidine functions into the cationic head contributes to the increase in the affinity of the compounds for DNA. This constitutes an important property of the compounds of the invention because the complexes which they form with DNA may be used in phase C without as a result being at excessively high charge ratios, with the beneficial effects which result therefrom on toxicity."}, "[2]": {"test_system": "NIH3T3, HepG2 and HeLa cells", "assay": "In vitro transfection in the absence and in the presence of serum proteins", "type": "cell-based", "conditions": "with versus without serum proteins; FIG. 3", "method": "FIG. 3: Measurement of the in vitro efficiency of transfection of compound 1 according to the invention into NIH3T3, HepG2 and HeLa cells, in the absence (white bars) and in the presence (black bars) of serum proteins and in comparison with its amine-containing homologue (RPR120535).\n(§1) The measurements were carried out at different charge ratios which are plotted on the x-axis. The expression of luciferase is plotted on the y-axis and is expressed in RLU (Relative Light Unit) per well.\n(§2) The nucleic acid used is the plasmid pXL2774 (WO 97/10343) comprising the gene encoding luciferase under the control of the human cytomegalovirus (CMV) promoter.\nThe nucleic acid solutions are diluted to 20 μg/ml in physiological saline (0.15 M sodium chloride NaCl). […]\nThe cells are washed with twice 500 μl of medium free of serum proteins and grown again either in serum-free medium (transfection in the absence of serum), or in complete medium (transfection in the presence of serum). […] When the cells are transfected in the absence of serum, the growth medium is supplemented 2 hours after transfection with the appropriate quantity of serum.\nThe transfection efficiency is evaluated 48 hours after the transfection by measuring the expression of luciferase according to the recommendations given for the use of the Promega kit [Luciferase Assay System]. […]"}, "[3]": {"test_system": "HepG2 cells", "assay": "Toxicity of the transfectant mixtures (protein concentrations in the cell lysates)", "type": "cell-based", "method": "(§3) The cells are cultured under appropriate conditions in 24-well microplates (2 cm^2 /well) and are transfected while they are in the exponential growth phase and at 50-70% confluence.\n(§4) The cells are washed with twice 500 μl of medium free of serum proteins and grown again either in serum-free medium (transfection in the absence of serum), or in complete medium (transfection in the presence of serum). 50 μl of transfectant mixture [i.e. 0.5 μg DNA/well] are added to the cells [3 wells/condition DNA vector]. When the cells are transfected in the absence of serum, the growth medium is supplemented 2 hours after transfection with the appropriate quantity of serum.\n(§5) The transfection efficiency is evaluated 48 hours after the transfection by measuring the expression of luciferase according to the recommendations given for the use of the Promega kit [Luciferase Assay System]. The toxicity of the transfectant mixtures is estimated by a measurement of the protein concentrations in the cell lysates.\n(§6) Compound 1 was used in comparison with the cationic lipid RPR120535 (TFA salt) [described in patent application WO 97/18185 incorporated into the present application by way of reference] as DNA vector to transfect three different cell lines: NIH3T3 cells, HepG2 cells and HeLa cells. […] The transfection efficiency for compound 1 and for the cationic lipid for comparison in the three cell types is represented in FIG. 2, for nmol of compound/μg of DNA ratios of between 3 and 12."}, "[4]": {"test_system": "NIH3T3 cells", "assay": "Toxicity of the transfectant mixtures (protein concentrations in the cell lysates)", "type": "cell-based", "method": "as §3, §4, §5, §6"}, "[5]": {"test_system": "HeLa cells", "assay": "Toxicity of the transfectant mixtures (protein concentrations in the cell lysates)", "type": "cell-based", "method": "as §3, §4, §5, §6"}, "[6]": {"test_system": "HepG2 cells", "assay": "In vitro transfection of luciferase plasmid pXL2774", "type": "cell-based", "method": "(§7) FIG. 2: Measurement of the in vitro efficiency of transfection of compound 1 according to the invention into NIH3T3, HepG2 and HeLa cells, in the absence of serum proteins and in comparison with its amine-containing homologue (RPR120535).\nas §1, §2\n(§8) The nucleic acid solutions are diluted to 20 μg/ml in physiological saline (0.15 M sodium chloride NaCl).\n(§9) The products described in the invention are dissolved in water at a concentration varying from 60 to 240 μM and mixed volume for volume with the DNA solution; the final saline concentration is 75 mM.\nas §3, §4, §5, §6"}, "[7]": {"test_system": "NIH3T3 cells", "assay": "In vitro transfection of luciferase plasmid pXL2774", "type": "cell-based", "conditions": "FIG. 2, absence of serum proteins, 48 hours", "method": "as §7, §1, §2, §8, §9, §3, §4, §5, §6"}, "[8]": {"test_system": "HeLa cells", "assay": "In vitro transfection of luciferase plasmid pXL2774", "type": "cell-based", "method": "as §7, §1, §2, §8, §9, §3, §4, §5, §6"}, "[9]": {"conditions": "FIG. 2, absence of serum proteins, 48 hours"}},
  "data": [
    {"compound": "CCCCCCCCCCCCCCN(CCCCCCCCCCCCCC)C(=O)CNC(=O)CNCCCNCCCCNCCCNC(=N)N", "note": "[compound 3, N-ditetradecylcarbamoylmethyl-2-{3-[4-(3-guanidinopropylamino)butylamino]propylamino}acetamide]", "values": [
      {"measurement": "shift of the unstable phase B in comparison with the amine-containing analogue", "setting": "[1]", "result": "a shift is observed from the unstable phase B towards lower charge ratios"}
    ]},
    {"compound": "CCCCCCCCCCCCCCCCCCN(CCCCCCCCCCCCCCCCCC)C(=O)CNC(=O)CNCCCNCCCCNCCCN", "note": "[RPR120535, reference compound]", "values": [
      {"measurement": "transfection levels with or without serum proteins", "setting": "[2]", "result": "a strong inhibition is observed due to the presence of the serum proteins"}
    ]},
    {"compound": "CCCCCCCCCCCCCCN(CCCCCCCCCCCCCC)C(=O)CNC(=O)CNCCCN(CCCCN(CCCNC(=N)N)CCCNC(=N)N)CCCNC(=N)N", "note": "[compound 6, 2-{3-[{4-[bis(3-guanidinopropyl)amino]butyl}-(3-guanidinopropyl)amino]-propylamino}-N-ditetradecylcarbamoylmethylacetamide]", "values": [
      {"measurement": "shift of the unstable phase B in comparison with the amine-containing analogue", "setting": "[1]", "result": "a shift is observed from the nstable phase B towards lower charge ratios"}
    ]},
    {"compound": "CCCCCCCCCCCCCCCCCCN(CCCCCCCCCCCCCCCCCC)C(=O)CNC(=O)CNCCCNCCCCNCCCNC(=N)N", "note": "[compound 1, N-dioctadecylcarbamoylmethyl-2-{3-[4-(3-guanidinopropylamino)butylamino]propylamino}acetamide]", "values": [
      {"measurement": "transfection levels with or without serum proteins", "setting": "[2]", "result": "the transfection levels with or without serum proteins are the same"},
      {"measurement": "toxicity of the transfectant mixture", "setting": "[3]", "result": "no significant toxicity was detected"},
      {"measurement": "toxicity of the transfectant mixture", "setting": "[4]", "result": "no significant toxicity was detected"},
      {"measurement": "toxicity of the transfectant mixture", "setting": "[5]", "result": "no significant toxicity was detected"},
      {"measurement": "ratio of cationic lipid to DNA giving the maximum transfection efficiency", "setting": "[6]; [9]", "result": "9 nanomoles cationic lipid/μg of DNA"},
      {"measurement": "luciferase expression level relative to the product tested in comparison (RPR120535)", "setting": "[6]; absence of serum", "result": "2 to 4", "unit": "times higher"},
      {"measurement": "ratio of cationic lipid to DNA giving the maximum transfection efficiency", "setting": "[7]", "result": "6 nanomoles cationic lipid/μg of DNA"},
      {"measurement": "ratio of cationic lipid to DNA giving the maximum transfection efficiency", "setting": "[8]; [9]", "result": "9 nanomoles cationic lipid/μg of DNA"},
      {"measurement": "luciferase expression level relative to the product tested in comparison (RPR120535)", "setting": "[8]; absence of serum", "result": "2 to 4", "unit": "times higher"}
    ]},
    {"compound": "CCCCCCCCCCCCCCN(CCCCCCCCCCCCCC)C(=O)CNC(=O)CN(CCCCNCCCNC(=N)N)CCCNC(=N)N", "note": "[compound 5, N-ditetradecylcarbamoylmethyl-2-{(3-guanidinopropyl)-[4-(3-guanidinopropylamino)butyl]amino}acetamide]", "values": [
      {"measurement": "shift of the unstable phase B in comparison with the amine-containing analogue", "setting": "[1]", "result": "a shift is observed from the unstable phase B towards lower charge ratios"}
    ]},
    {"compound": "CCCCCCCCCCCCCCCCCCN(CCCCCCCCCCCCCCCCCC)C(=O)CNCCN(CCNC(=N)N)CCNC(=N)N", "note": "[compound 2, 2-{2-[bis(2-guanidinoethyl)amino]ethylamino}-N,N-dioctadecylacetamide]", "values": [
      {"measurement": "shift of the unstable phase B in comparison with the amine-containing analogue", "setting": "[1]", "result": "a shift is observed from the unstable phase B towards lower charge ratios"}
    ]}
  ]
}
